According to Sander's compilation of Henry's law constants (doi:10.1021/je900711h):

Experiment: Henry solubility constant Hcp at 298.15 K (mol/(m3 Pa))
Conditions: reference: O’Farrell and Waghorne (2010)

For `OCC(F)F` [2,2-difluoroethanol], the “Henry solubility constant Hcp” value was 0.92.

With `COCCOC` [1,2-dimethoxyethane] the “Henry solubility constant Hcp” value was 2.1.

In the case of `CC(=O)C(Cl)Cl` [1,1-dichloro-2-propanone], the “Henry solubility constant Hcp” value is reported as 0.33.

With `O=C1CCCC1` [cyclopentanone] the “Henry solubility constant Hcp” value was 2.8.

In the case of `CCO` [ethanol], the “Henry solubility constant Hcp” value is reported as 2.2.

For `CCC(=O)CC` [3-pentanone], the “Henry solubility constant Hcp” value was 0.21.

In the case of `C1COCOC1` [1,3-dioxane], the “Henry solubility constant Hcp” value is reported as 1.8.

In the case of `CC(C)=O` [propanone], the “Henry solubility constant Hcp” value is reported as 0.33.

For `OCC(Cl)Cl` [2,2-dichloroethanol], the “Henry solubility constant Hcp” value was 0.37.

For `CC(=O)CF` [1-fluoro-2-propanone], the “Henry solubility constant Hcp” value was 0.46.
